Source: PMC7891422, “Tryptophan Analogues with Fixed Side‐Chain Orientation: Expanding the Scope” (Chembiochem, 2020)

Molecular target: T1, ghrelin receptor (Homo sapiens, UniProt Q92847)
T1 construct: expressed in transfected cells; host or cells: COS7 cells (stably transfected)
Experiment: IP‐One assay (Cisbio IP-One Gq kit), inverse agonist activity
Format: cell-based
Conditions: mean±SEM of at least two independent experiments
Protocol: The four peptides and two known inverse agonists were tested towards their activity on the ghrelin receptor that was stably transfected in COS7 cells and examined in the Cisbio IP‐One assay as described in the supplementary section.
The assay was carried out in COS7 cells that were stably transfected with the ghrelin receptor. Data are the mean ±SEM of at least two independent experiments performed in triplicate.
IP-One assay COS7 cells stably transfected with the ghrelin receptor fused C-terminally to eYFP were cultured in a humidified atmosphere at 37 °C and 5% CO2 in Dulbecco's modified Eagle's medium with higher glucose supplemented with 10% (v/v) FCS and 0.4 mg/ml hygromycin B. Cisbio IP-One Gq assay kit was used according to previous description.[4] Shortly, 10000 cells/well were seeded out in a 384-well flat white plate and on the next day, stimulation was carried out in triplicates for 3h. 3 µl IP1-d2 and 3 µl Ab-cryptate were added and incubated on a tumbler for 60 min. Fluorescence was measured at 620 nm and 665 nm. HTRF ratio was calculated as the ratio 665/620. Obtained data were analyzed with GraphPad Prism 5.0 (GraphPad Software, San Diego, USA)
Emax is the efficacy of the peptide and represents the difference between constitutive activity and activity at maximal effect of the peptide. EC50 is the peptide concentration at half-

T1 sequence (Q92847 whole entry, species assumed): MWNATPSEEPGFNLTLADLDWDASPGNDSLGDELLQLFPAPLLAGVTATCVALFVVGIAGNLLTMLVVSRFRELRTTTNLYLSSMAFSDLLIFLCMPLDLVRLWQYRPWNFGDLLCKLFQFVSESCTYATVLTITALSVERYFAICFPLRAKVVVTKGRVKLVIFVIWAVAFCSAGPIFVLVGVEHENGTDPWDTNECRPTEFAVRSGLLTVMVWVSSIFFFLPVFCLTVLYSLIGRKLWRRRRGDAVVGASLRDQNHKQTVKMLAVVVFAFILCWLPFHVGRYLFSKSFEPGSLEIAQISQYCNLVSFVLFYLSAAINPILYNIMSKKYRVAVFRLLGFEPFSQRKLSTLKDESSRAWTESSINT

Compound: CC(C)C[C@H](NC(=O)[C@H](CC(C)C)NC(=O)[C@@H](Cc1c[nH]c2ccccc12)NC(=O)[C@H](Cc1ccccc1)NC(=O)[C@@H](Cc1c[nH]c2ccccc12)NC(=O)[C@@H](N)CCCCN)C(N)=O [Peptide 4, KwFwLL‐NH2]
- E max±SEM (efficacy = difference between constitutive activity and activity at maximal effect, normalized to KbFwLL‐NH2 (3)): 66±3 Δ%
- EC50 (inverse agonism, COS7 cells stably transfected with ghrelin receptor-eYFP, 3 h stimulation): 234 nM
